Laboratory results: ChEMBL document CHEMBL4507274 (2021)

How the values were obtained:
[1] = biological target: Homeodomain-interacting protein kinase 1 (Homo sapiens) (UniProt Q86Z02); conditions: Compound concentration 100.0 nM
[2] = biological target: Ephrin type-A receptor 6 (Homo sapiens) (UniProt Q9UF33); conditions: Compound concentration 100.0 nM
[3] = biological target: Ribosomal protein S6 kinase alpha-6 (Homo sapiens) (UniProt Q9UK32); conditions: Compound concentration 100.0 nM
[4] = system: Receptor-type tyrosine-protein kinase FLT3 (Homo sapiens), P36888 [D835V]; conditions: Compound concentration 100.0 nM
[5] = biological target: Leukocyte tyrosine kinase receptor (Homo sapiens) (UniProt P29376); conditions: Compound concentration 100.0 nM
[6] = biological target: cAMP-dependent protein kinase catalytic subunit beta (Homo sapiens) (UniProt P22694); conditions: Compound concentration 100.0 nM
[7] = biological target: Serine/threonine-protein kinase Sgk2 (Homo sapiens) (UniProt Q9HBY8); conditions: Compound concentration 100.0 nM
Serine/threonine-protein kinase Sgk2 (Homo sapiens), sequence (Q9HBY8 whole entry): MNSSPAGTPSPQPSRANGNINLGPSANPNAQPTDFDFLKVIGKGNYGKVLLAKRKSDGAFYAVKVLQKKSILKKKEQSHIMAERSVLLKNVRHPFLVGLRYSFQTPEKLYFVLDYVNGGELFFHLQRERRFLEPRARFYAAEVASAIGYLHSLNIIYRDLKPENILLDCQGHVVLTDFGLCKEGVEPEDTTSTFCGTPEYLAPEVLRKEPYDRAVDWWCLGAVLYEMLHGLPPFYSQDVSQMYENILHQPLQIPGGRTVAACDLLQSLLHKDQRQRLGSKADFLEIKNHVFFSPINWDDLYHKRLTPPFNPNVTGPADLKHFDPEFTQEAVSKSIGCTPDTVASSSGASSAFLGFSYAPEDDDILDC

[8] = biological target: Serine/threonine-protein kinase 32B (Homo sapiens) (UniProt Q9NY57); conditions: Compound concentration 100.0 nM
[9] = biological target: MAP/microtubule affinity-regulating kinase 3 (Homo sapiens) (UniProt P27448); conditions: Compound concentration 100.0 nM
[10] = biological target: RAC-alpha serine/threonine-protein kinase (Homo sapiens) (UniProt P31749); conditions: Compound concentration 100.0 nM
[11] = biological target: Cyclin-dependent kinase 14 (Homo sapiens) (UniProt O94921); conditions: Compound concentration 100.0 nM
Cyclin-dependent kinase 14 (Homo sapiens), sequence (O94921 whole entry): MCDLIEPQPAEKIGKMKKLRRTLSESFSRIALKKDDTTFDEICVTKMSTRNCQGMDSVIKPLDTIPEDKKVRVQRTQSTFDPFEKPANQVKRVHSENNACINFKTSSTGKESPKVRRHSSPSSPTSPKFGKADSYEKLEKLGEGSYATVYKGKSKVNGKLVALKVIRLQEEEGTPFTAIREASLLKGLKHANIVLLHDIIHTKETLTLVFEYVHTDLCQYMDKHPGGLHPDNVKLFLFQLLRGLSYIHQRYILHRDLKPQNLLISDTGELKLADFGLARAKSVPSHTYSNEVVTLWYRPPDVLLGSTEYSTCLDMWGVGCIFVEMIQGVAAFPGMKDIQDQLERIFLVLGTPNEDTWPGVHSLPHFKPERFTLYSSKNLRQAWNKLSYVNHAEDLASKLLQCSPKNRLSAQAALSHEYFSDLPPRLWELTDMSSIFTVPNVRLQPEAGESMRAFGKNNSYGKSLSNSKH

[12] = biological target: Mitogen-activated protein kinase 6 (Homo sapiens) (UniProt Q16659); conditions: Compound concentration 100.0 nM
[13] = biological target: Ephrin type-A receptor 2 (Homo sapiens) (UniProt P29317); conditions: Compound concentration 100.0 nM
[14] = biological target: cGMP-dependent protein kinase 1 (Homo sapiens) (UniProt Q13976); conditions: Compound concentration 100.0 nM
[15] = biological target: Serine/threonine-protein kinase PAK 3 (Homo sapiens) (UniProt O75914); conditions: Compound concentration 100.0 nM
Serine/threonine-protein kinase PAK 3 (Homo sapiens), sequence (O75914 whole entry, looked up): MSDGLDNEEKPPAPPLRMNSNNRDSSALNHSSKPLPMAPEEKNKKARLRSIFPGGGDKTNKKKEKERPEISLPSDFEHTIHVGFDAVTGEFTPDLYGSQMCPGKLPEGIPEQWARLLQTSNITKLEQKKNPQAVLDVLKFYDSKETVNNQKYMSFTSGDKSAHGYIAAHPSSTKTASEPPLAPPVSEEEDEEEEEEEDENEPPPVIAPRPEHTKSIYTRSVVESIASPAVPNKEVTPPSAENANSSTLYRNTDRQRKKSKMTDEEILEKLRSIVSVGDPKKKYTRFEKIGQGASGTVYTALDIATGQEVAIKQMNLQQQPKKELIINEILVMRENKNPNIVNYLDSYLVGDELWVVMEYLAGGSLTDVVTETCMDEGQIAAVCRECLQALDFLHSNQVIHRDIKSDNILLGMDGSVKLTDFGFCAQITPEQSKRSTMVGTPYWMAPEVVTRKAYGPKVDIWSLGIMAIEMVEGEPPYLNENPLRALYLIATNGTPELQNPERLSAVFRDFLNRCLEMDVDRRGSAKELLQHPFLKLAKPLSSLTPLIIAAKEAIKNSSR

[16] = system: Tyrosine-protein kinase ABL1 (Homo sapiens), P00519 [F317L]; conditions: Compound concentration 100.0 nM
[17] = biological target: Serine/threonine-protein kinase VRK2 (Homo sapiens) (UniProt Q86Y07); conditions: Compound concentration 100.0 nM
[18] = biological target: Phosphorylase b kinase gamma catalytic chain, skeletal muscle/heart isoform (Homo sapiens) (UniProt Q16816); conditions: Compound concentration 100.0 nM
[19] = biological target: Serine/threonine-protein kinase 33 (Homo sapiens) (UniProt Q9BYT3); conditions: Compound concentration 100.0 nM
[20] = biological target: Mitogen-activated protein kinase 4 (Homo sapiens) (UniProt P31152); conditions: Compound concentration 100.0 nM
[21] = biological target: Serine/threonine-protein kinase Nek1 (Homo sapiens) (UniProt Q96PY6); conditions: Compound concentration 100.0 nM
Serine/threonine-protein kinase Nek1 (Homo sapiens), sequence (Q96PY6 whole entry): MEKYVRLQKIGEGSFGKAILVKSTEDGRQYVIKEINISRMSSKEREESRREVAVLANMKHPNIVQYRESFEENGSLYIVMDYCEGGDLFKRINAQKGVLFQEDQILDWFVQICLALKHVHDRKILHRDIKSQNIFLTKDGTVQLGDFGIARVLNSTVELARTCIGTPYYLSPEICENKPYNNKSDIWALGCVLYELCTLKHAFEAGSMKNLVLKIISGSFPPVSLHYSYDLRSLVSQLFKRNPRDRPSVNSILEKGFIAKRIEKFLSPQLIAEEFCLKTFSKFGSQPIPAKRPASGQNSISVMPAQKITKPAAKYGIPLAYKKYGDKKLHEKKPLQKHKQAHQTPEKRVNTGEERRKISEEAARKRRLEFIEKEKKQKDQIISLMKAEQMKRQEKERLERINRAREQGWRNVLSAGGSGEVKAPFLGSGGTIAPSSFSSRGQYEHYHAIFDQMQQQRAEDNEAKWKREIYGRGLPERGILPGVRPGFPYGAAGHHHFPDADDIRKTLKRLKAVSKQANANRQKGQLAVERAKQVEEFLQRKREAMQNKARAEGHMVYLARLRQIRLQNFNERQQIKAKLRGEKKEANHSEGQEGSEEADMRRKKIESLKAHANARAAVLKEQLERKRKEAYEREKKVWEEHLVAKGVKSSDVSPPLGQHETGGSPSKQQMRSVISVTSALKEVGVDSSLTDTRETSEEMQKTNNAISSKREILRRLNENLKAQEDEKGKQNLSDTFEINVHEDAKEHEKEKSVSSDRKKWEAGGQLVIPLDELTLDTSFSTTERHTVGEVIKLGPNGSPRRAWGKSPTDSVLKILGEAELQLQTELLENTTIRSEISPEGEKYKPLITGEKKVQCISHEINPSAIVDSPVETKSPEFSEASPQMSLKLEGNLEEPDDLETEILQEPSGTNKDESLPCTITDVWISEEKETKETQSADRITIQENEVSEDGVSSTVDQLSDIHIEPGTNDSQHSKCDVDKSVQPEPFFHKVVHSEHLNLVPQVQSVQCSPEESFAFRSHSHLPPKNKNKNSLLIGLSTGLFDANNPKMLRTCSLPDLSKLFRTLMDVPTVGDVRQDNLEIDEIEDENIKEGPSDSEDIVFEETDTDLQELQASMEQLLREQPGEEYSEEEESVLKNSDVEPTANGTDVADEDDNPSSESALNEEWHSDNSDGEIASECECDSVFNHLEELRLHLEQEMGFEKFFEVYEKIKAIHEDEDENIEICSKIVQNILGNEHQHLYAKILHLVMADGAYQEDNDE

[22] = biological target: Serine/threonine-protein kinase PLK4 (Homo sapiens) (UniProt O00444); conditions: Compound concentration 100.0 nM
[23] = biological target: Peripheral plasma membrane protein CASK (Homo sapiens) (UniProt O14936); conditions: Compound concentration 100.0 nM
Peripheral plasma membrane protein CASK (Homo sapiens), sequence (O14936 whole entry): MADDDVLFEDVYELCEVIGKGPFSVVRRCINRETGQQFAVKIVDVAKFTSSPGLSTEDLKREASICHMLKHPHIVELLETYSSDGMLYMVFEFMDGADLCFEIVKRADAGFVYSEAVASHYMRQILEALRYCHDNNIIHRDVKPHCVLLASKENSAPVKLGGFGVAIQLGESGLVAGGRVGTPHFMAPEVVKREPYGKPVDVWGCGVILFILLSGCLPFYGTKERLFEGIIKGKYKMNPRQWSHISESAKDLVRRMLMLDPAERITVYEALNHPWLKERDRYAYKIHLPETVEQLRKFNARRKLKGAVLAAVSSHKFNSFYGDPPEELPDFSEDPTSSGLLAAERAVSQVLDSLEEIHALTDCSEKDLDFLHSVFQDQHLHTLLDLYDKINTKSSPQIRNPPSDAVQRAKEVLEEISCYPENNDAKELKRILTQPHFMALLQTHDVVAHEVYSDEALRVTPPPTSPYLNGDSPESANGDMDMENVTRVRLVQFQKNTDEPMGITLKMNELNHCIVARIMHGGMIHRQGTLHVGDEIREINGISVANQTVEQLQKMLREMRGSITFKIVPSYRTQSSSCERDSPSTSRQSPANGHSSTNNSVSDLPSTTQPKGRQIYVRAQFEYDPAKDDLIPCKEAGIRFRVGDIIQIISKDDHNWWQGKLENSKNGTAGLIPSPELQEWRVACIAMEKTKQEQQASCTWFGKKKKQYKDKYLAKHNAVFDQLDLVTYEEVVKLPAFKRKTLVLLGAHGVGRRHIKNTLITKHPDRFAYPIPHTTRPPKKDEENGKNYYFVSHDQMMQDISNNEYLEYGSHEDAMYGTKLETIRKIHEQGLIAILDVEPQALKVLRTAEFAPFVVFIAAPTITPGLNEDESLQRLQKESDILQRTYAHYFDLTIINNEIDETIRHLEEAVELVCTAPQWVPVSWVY

[24] = system: Receptor-type tyrosine-protein kinase FLT3 (Homo sapiens), P36888 [D835Y]; conditions: Compound concentration 100.0 nM
[25] = biological target: Mitogen-activated protein kinase kinase kinase 9 (Homo sapiens) (UniProt P80192); conditions: Compound concentration 100.0 nM
[26] = biological target: Glycogen synthase kinase-3 alpha (Homo sapiens) (UniProt P49840); conditions: Compound concentration 100.0 nM
Glycogen synthase kinase-3 alpha (Homo sapiens), sequence (P49840 2-483 limits assumed): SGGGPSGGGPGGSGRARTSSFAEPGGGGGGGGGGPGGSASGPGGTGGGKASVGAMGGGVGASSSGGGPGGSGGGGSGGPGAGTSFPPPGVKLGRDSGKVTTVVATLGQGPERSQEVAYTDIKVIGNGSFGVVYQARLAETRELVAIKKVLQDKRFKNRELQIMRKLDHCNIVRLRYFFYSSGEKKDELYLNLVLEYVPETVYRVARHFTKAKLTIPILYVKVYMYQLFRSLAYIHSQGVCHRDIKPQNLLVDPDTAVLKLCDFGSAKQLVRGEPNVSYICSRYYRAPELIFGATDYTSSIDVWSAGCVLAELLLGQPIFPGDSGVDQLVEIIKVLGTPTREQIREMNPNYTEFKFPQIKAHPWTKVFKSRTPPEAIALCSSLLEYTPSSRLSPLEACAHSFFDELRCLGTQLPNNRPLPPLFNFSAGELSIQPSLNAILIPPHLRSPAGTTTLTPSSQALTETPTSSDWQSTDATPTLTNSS

[27] = biological target: 5-hydroxytryptamine receptor 3A (Homo sapiens) (UniProt P46098); conditions: Compound concentration 10.0 uM
[28] = biological target: Phosphatidylinositol 4,5-bisphosphate 3-kinase catalytic subunit alpha isoform (Homo sapiens) (UniProt P42336); conditions: Compound concentration 100.0 nM
[29] = biological target: Serine/threonine-protein kinase 35 (Homo sapiens) (UniProt Q8TDR2); conditions: Compound concentration 100.0 nM
Serine/threonine-protein kinase 35 (Homo sapiens), sequence (Q8TDR2 whole entry): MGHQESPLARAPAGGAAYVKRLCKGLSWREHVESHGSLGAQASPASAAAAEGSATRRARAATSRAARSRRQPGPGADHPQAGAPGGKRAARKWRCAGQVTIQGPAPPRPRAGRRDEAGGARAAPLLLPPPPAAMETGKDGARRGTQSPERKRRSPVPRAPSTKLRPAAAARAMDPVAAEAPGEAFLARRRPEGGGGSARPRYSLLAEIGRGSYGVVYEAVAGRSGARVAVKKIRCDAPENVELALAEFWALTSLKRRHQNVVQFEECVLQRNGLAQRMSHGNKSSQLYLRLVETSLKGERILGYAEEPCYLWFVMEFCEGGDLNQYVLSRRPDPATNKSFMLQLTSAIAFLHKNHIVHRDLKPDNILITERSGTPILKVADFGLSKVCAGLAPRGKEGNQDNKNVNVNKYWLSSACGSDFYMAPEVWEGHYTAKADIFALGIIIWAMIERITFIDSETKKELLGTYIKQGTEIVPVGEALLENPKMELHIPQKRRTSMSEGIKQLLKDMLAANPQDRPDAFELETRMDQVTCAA

[30] = biological target: Tyrosine-protein kinase Fes/Fps (Homo sapiens) (UniProt P07332); conditions: Compound concentration 100.0 nM
[31] = biological target: Serine/threonine-protein kinase WNK4 (Homo sapiens) (UniProt Q96J92); conditions: Compound concentration 100.0 nM
[32] = system: Phosphatidylinositol 4,5-bisphosphate 3-kinase catalytic subunit alpha isoform (Homo sapiens), P42336 [C420R]; conditions: Compound concentration 100.0 nM
[33] = biological target: Calcium/calmodulin-dependent protein kinase kinase 2 (Homo sapiens) (UniProt Q96RR4); conditions: Compound concentration 100.0 nM
[34] = biological target: Serine/threonine-protein kinase Nek3 (Homo sapiens) (UniProt P51956); conditions: Compound concentration 100.0 nM
[35] = biological target: Serine/threonine-protein kinase pim-3 (Homo sapiens) (UniProt Q86V86); conditions: Compound concentration 100.0 nM
[36] = biological target: Cyclin-dependent kinase-like 1 (Homo sapiens) (UniProt Q00532); conditions: Compound concentration 100.0 nM
[37] = biological target: Atypical kinase COQ8A, mitochondrial (Homo sapiens) (UniProt Q8NI60); conditions: Compound concentration 100.0 nM
[38] = biological target: D(1A) dopamine receptor (Homo sapiens) (UniProt P21728); conditions: Compound concentration 10.0 uM

| Compound | residual activity [1] [%] | residual activity [2] [%] | residual activity [3] [%] | residual activity [4] [%] | residual activity [5] [%] | residual activity [6] [%] | residual activity [7] [%] | residual activity [8] [%] | residual activity [9] [%] | residual activity [10] [%] | residual activity [11] [%] | residual activity [12] [%] | residual activity [13] [%] | residual activity [14] [%] | residual activity [15] [%] | residual activity [16] [%] | residual activity [17] [%] | residual activity [18] [%] | residual activity [19] [%] | residual activity [20] [%] | further results |
| --- | --- | --- | --- | --- | --- | --- | --- | --- | --- | --- | --- | --- | --- | --- | --- | --- | --- | --- | --- | --- | --- |
| Cc1c[nH]c2nccc(Oc3c(F)cc(Nc4cc(Cl)nc(N)n4)cc3F)c12 [BAY-549] | 100 | 100 | 99 | 90 | 99 | 36 | 69 | 71 | 74 | 100 | 100 | 95 | 100 | 49 | 86 | 74 | 76 | 100 | 85 | 81 | residual activity [21]: 96%; residual activity [22]: 82%; residual activity [23]: 98%; residual activity [24]: 63%; residual activity [25]: 89%; residual activity [26]: 95%; inhibition [27]: 0.5%; residual activity [28]: 83%; residual activity [29]: 94%; residual activity [30]: 100%; residual activity [31]: 100%; residual activity [32]: 89%; residual activity [33]: 98%; residual activity [34]: 75%; residual activity [35]: 100%; residual activity [36]: 100%; residual activity [37]: 100%; inhibition [38]: 16.1% |
| Cn1cc(Cl)c2c(Oc3c(F)cc(Nc4cc(Cl)nc(N)n4)cc3F)ccnc21 [BAY-4900] | 100 | 100 | 100 | 91 | 87 | 92 | 86 | 99 | 83 | 75 | 100 | 100 | 100 | 83 | 100 | 74 | 81 | 100 | 100 | 100 | residual activity [21]: 100%; residual activity [22]: 83%; residual activity [23]: 100%; residual activity [24]: 99%; residual activity [25]: 96%; residual activity [26]: 99%; inhibition [27]: 4.46%; residual activity [28]: 79%; residual activity [29]: 99%; residual activity [30]: 100%; residual activity [31]: 100%; residual activity [32]: 82%; residual activity [33]: 99%; residual activity [34]: 91%; residual activity [35]: 100%; residual activity [36]: 100%; residual activity [37]: 100%; inhibition [38]: 13.2% |
